We go through one molecule from patent US6713509B1, “Controlled release formulation for treating COPD” (SmithKline Beecham Corporation, priority 1999, dated 2004).

For series [1], the system named is PDE 4. The series is described as follows: IC50 ratio (high/low affinity rolipram binding forms of PDE 4). As to conditions: IC50 for competing with 1 nM [3H]R-rolipram binding (high affinity form) over IC50 for PDE 4 catalytic activity (low affinity form), 1 uM [3H]-cAMP. It is filed as biochemical. From the text:
This invention covers controlled release formulations which contain a PDE 4 inhibitor, particularly an inhibitor that is specific for PDE 4. A preferred group of inhibitors are those that have an IC50 ratio (high/low binding) of about 0.1 or greater as further described in co-pending U.S. application Ser. No. 08/456,274, now U.S. Pat. No. 6,143,782 and its published counter-part PCT application serial number published Jan. 05, 1995 as WO95/00139; this application is incorporated herein in full by reference as if fully set forth herein. A preferred standard for PDE 4-specific inhibitors which can be used in this invention is one where the compound has an IC50 ratio of about 0.1 or greater; said ratio being the ratio of the IC50 value for competing with the binding of 1 nM of [^3H]R-rolipram to a form of PDE 4 which binds rolipram with a high affinity over the IC50 value for inhibiting the PDE 4 catalytic activity of a form which binds rolipram with a low affinity using 1 uM[^3H]-cAMP as the substrate.

Series [2] is described as follows: oral administration of the PDE4 inhibitor in COPD: effect and side effects. It counts as in vivo.
A short description of series [3]: stability of Carbopol-based controlled release tablet versus moisture level. It is filed as physicochemical. Particulars: moisture removed from the system. The text has this:
Low moisture levels in certain Carbopol-based controlled release preparations may compromise the stability of the active ingredient cis-4-cyano-4-[3-(cyclopentyloxy)-4-methoxyphenyl]cyclohexane-1-carboxylic acid. High moisture levels may compromise the release rate of such formulations.
It is not known why this occurs when the moisture level is below 0.5% nor is it known how to stop this from occuring, other than to maintain the specified levels of hydration.
The technique for measuring moisture level in this representative tablet was as follows:
The analysis was performed using a Omnimark MARK2 Moisture Analyzer. The Unit determines the moisture content using Infrared heat to dry the sample at a programmed temperature of 120° Celsius with a standby temperature of 80° Celsius. It calculates the percent loss on drying from the initial weight and the final weight of the sample. The results are printed out as % w/w automatically when the analysis is finished. The analysis usually takes 2 to 3 minutes for one measurement of a sample with a moisture level of less than 1.5%w/w.

SMILES strings stand for the structures.

With `COc1ccc([C@]2(C#N)CC[C@@H](C(=O)O)CC2)cc1OC1CCCC1` [cis-4-cyano-4-[3-(cyclopentyloxy)-4-methoxyphenyl]cyclohexane-1-carboxylic acid], in series [1], the “therapeutic ratio (IC50 ratio high/low binding)” value is on record as “greater than 0.1”. Further, in series [2] (administered orally, at certain doses), the “therapeutic effect in COPD” value is “achieve an effective therapeutic effect in COPD at certain doses”. The side effects result in series [2] (as blood levels increase with increased levels of dosing) is “undesirable side effects such as those attributed to CNS activity begin to be manifested”. The “stability in combination with dibasic calcium phosphate (anhydrous)” value in series [3] is recorded as “appears to be unstable when moisture is removed from the system”.
